Measured values taken from patent US9365612B2, “Caspase inhibitors” (United States of America as represented by the Secretary, …, priority 2010, dated 2016).

Experiments:
[1] = aqueous degradation study by LCMS over 96 hours; format: physicochemical; conditions: for aqueous stability in acidic conditions (pH 2): pH 2, LCMS; for aqueous stability in acidic conditions (pH 2) / aqueous stability in neutral conditions (water, pH 7) / aqueous stability in basic conditions (pH 8): over 96 hours; for aqueous stability in neutral conditions (water, pH 7): pH 7, LCMS; for aqueous stability in basic conditions (pH 8): pH 8, LCMS
Description: In order to evaluate the agent's stability profile, VX-765 (1), VRT-043198 (2b), NCGC00185682 (3), NCGC00183434 (4) and NCGC00183681 (16) were examined within an aqueous degradation study at neutral (pH 7) acidic (pH 2) and basic (pH 8) conditions. The study was conducted by monitoring the degradation of each agent by LCMS analysis at various time points over 96 hours (FIG. 8). […] This degradation was amplified in both basic and acidic conditions. Conversely, the active agent VRT-043198 (2b) was very stable in both water and acidic conditions and its degradation at pH 8 was moderate.

[2] = system: Caco-2; experiment: bi-directional Caco-2 permeability; format: in vitro ADME
Description: (§1) Given the aqueous stability of these new agents, selected ADME properties for chosen compounds were also examined. VX-765 (1), VRT-043198 (2b), NCGC00185682 (3), NCGC00183434 (4) and NCGC00183681 (16) were evaluated for a profile of bi-directional Caco-2 permeability, plasma protein binding (both human and rat) and microsomal stability (both human and rat) studies (FIG. 9, Table 2). […] The clearance rates (Clint) and t ½ for VRT-043198 (2b), NCGC00185682 (3), NCGC00183434 (4) and NCGC00183681 (16) were all moderate.

[3] = molecular target: T1, Pgp (Homo sapiens, UniProt P08183); experiment: Caco-2 control experiment with verapamil (Pgp efflux); format: in vitro ADME
T1 construct: endogenous in cells; host or cells: Caco-2
T1 sequence (P08183 whole entry): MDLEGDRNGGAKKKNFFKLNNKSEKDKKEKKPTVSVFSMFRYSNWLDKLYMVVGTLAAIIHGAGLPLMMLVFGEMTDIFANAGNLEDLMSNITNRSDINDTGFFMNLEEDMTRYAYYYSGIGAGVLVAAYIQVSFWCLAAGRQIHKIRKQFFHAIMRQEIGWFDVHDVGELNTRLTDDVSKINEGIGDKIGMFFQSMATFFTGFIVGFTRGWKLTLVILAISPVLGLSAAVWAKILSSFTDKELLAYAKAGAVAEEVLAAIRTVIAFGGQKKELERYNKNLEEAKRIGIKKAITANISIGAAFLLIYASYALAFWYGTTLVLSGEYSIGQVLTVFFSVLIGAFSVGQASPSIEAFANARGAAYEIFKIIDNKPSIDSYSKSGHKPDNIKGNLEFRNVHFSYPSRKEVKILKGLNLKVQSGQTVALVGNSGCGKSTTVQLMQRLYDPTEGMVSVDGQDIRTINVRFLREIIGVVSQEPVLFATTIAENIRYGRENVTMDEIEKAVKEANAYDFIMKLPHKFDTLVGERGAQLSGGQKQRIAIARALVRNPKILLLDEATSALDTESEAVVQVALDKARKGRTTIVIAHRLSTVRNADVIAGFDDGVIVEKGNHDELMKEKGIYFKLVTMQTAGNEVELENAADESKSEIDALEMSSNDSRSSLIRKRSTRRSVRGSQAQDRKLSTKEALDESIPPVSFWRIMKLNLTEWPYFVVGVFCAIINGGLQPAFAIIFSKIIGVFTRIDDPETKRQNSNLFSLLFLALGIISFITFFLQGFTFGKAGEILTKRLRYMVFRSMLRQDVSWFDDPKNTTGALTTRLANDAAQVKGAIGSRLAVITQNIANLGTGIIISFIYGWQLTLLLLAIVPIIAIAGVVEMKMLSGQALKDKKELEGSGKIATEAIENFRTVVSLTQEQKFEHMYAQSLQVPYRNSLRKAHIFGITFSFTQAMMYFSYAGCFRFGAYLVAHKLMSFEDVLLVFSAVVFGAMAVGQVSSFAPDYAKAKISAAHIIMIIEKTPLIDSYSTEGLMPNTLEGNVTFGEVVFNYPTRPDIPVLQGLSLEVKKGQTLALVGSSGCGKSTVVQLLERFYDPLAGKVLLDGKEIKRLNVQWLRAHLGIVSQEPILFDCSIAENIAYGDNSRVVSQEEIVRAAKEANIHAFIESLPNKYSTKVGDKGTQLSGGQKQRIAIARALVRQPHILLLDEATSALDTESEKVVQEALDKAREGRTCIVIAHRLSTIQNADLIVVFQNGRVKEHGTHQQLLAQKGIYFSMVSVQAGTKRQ
Description: as §1

[4] = microsomal stability (both human and rat); format: in vitro ADME; conditions: for clearance rates (Clint) / t ½: species not given
Description: as §1

[5] = molecular target: T2, caspase 1 (Homo sapiens, UniProt P29466); experiment: caspase 1 inhibition assay with caged fluorescent peptide substrate (Ac-LEHD-AMC); format: biochemical; conditions: 2 nM enzyme, 20 minutes at room temperature, fluorescence detection, read-out: IC50 versus caspase 1
T2 sequence (P29466 120-297 limits assumed): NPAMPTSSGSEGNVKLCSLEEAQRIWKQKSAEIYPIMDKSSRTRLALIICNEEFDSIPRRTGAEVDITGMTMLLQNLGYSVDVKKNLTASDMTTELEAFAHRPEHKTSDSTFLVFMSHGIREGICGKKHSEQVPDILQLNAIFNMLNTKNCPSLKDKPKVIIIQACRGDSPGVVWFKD
T2 sequence (P29466 317-404 limits assumed): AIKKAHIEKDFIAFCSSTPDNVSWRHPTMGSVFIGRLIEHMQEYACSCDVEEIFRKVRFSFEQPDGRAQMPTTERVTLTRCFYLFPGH
Description: Each agent's inhibitory capacity versus caspase 1 was evaluated. A well established protocol was utilized whereby caspase 1 activity is measured utilizing 2 nM enzyme in the presence and absence of compound and a caged fluorescent peptide substrate (Ac-LEHD-AMC). Wannamaker et al, Journal of Pharmacology and Experimental Therapeutics, 2007, 321, 509-516. The compounds were examined across a titration series (0.325 nM→57.5 μM) and data was recorded via fluorescence detection following an incubation period of 20 minutes at room temperature.

[6] = molecular target: T2, caspase 1; experiment: commercial panel of caspases (Reaction Biology Corporation), caspase 1; format: biochemical; conditions: read-out: IC50 versus caspase 1
From the text: (§2) Having established that the compounds (3), (4) and (16) are potent inhibitors of caspase 1, the selectivity of these agents was examined. […] Wannamaker, W.; Davies, R.; Namchuk, M.; Pollard, J.; Ford, P.; Ku, G.; Decker, C.; Charifson, P.; Weber, P.; Germann, U. A.; Kuida, K.; Randle, J. C. R. J. Pharmacol. Exp. Ther. 2007, 321, 509-516. […] VRT-043198 (2b), NCGC00185682 (3), NCGC00183434 (4) and NCGC00183681 (16) were entered within a commercial panel of caspases offered by Reaction Biology Corporation. […] A particularly interesting aspect of these molecules was the high selectivity for caspase 1. […] All other activities were about the 1 μM threshold.

[7] = molecular target: T3, caspase 4 (Homo sapiens, UniProt P49662); experiment: commercial panel of caspases (Reaction Biology Corporation), caspase 4; format: biochemical; conditions: read-out: IC50 versus caspase 4
T3 construct: purchased Reaction Biology Corporation
T3 sequence (P49662 81-270 limits assumed): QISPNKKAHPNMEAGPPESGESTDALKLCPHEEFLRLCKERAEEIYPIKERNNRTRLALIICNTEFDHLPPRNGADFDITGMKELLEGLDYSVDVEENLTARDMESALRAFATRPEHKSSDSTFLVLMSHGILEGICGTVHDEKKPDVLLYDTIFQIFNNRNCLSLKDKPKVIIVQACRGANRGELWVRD
T3 sequence (P49662 290-377 limits assumed): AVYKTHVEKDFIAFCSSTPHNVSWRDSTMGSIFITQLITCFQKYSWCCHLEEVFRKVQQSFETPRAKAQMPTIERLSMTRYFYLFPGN
From the text: as §2

[8] = molecular target: T4, caspase 8 (Homo sapiens, UniProt Q14790); experiment: commercial panel of caspases (Reaction Biology Corporation), caspase 8; format: biochemical; conditions: read-out: IC50 versus caspase 8
T4 sequence (Q14790 217-374 limits assumed): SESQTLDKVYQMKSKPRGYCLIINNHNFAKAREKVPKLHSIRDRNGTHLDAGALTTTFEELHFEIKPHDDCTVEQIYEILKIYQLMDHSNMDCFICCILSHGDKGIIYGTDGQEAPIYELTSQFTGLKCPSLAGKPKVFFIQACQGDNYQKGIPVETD
T4 sequence (Q14790 385-479 limits assumed): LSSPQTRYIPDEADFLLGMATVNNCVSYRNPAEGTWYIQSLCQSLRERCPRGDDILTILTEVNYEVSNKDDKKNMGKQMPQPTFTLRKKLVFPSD
From the text: as §2

[9] = molecular target: T5, caspase 6 (Homo sapiens, UniProt P55212); experiment: commercial panel of caspases (Reaction Biology Corporation), caspase 6; format: biochemical; conditions: read-out: IC50 versus caspase 6
T5 sequence (P55212 24-179 limits assumed): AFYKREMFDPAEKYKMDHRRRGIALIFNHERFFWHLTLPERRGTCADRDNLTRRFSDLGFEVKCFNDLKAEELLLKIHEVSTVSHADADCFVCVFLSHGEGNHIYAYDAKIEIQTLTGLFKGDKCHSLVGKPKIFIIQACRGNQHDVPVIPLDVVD
T5 sequence (P55212 194-293 limits assumed): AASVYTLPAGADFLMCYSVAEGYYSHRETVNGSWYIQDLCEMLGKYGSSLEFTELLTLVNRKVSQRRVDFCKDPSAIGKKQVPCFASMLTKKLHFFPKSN
From the text: as §2

[10] = molecular target: T6, caspase 9 (Homo sapiens, UniProt P55211); experiment: commercial panel of caspases (Reaction Biology Corporation), caspase 9; format: biochemical; conditions: read-out: IC50 versus caspase 9
T6 construct: purchased Reaction Biology Corporation
T6 sequence (P55211 1-315 limits assumed): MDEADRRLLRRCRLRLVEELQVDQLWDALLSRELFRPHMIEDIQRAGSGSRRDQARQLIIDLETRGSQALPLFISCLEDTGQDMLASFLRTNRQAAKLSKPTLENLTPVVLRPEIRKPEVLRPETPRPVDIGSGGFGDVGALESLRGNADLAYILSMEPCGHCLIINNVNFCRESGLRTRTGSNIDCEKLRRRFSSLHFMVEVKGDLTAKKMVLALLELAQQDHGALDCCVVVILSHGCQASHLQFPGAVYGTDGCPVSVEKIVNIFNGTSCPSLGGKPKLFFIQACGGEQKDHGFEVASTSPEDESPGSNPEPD
T6 sequence (P55211 331-416 limits assumed): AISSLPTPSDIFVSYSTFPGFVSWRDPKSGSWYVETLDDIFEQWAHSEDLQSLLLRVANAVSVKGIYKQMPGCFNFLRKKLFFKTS
From the text: as §2

[11] = molecular target: T7, caspase 14 (Homo sapiens, UniProt P31944); experiment: commercial panel of caspases (Reaction Biology Corporation), caspase 14; format: biochemical; conditions: read-out: IC50 versus caspase 14
T7 construct: purchased Reaction Biology Corporation
T7 sequence (P31944 6-146 limits assumed): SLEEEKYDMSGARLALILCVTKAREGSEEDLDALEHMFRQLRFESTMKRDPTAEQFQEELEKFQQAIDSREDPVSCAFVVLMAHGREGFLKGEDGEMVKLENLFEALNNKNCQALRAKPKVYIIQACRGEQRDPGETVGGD
T7 sequence (P31944 153-242 limits assumed): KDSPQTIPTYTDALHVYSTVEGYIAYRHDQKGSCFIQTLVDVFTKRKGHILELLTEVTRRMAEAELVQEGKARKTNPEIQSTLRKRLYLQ
From the text: as §2

[12] = plasma protein binding, human; format: in vitro ADME; conditions: relative to VX-765 (1) and NCGC00185682 (3)
Description: as §1

[13] = plasma protein binding, rat; format: in vitro ADME; conditions: relative to VX-765 (1) and NCGC00185682 (3)
Description: as §1

[14] = molecular target: T2, caspase 1; conditions: reported by Randle and coworkers (Wannamaker et al. 2007); read-out: Ki versus caspase 1; cited from earlier work
[15] = molecular target: T3, caspase 4; conditions: reported by Randle and coworkers (Wannamaker et al. 2007); read-out: Ki versus caspase 4; cited from earlier work
[16] = molecular target: T4, caspase 8; conditions: reported by Randle and coworkers (Wannamaker et al. 2007); read-out: Ki versus caspase 8; cited from earlier work
[17] = molecular target: T5, caspase 6; conditions: reported by Randle and coworkers (Wannamaker et al. 2007); read-out: Ki versus caspase 6; cited from earlier work
[18] = molecular target: T6, caspase 9; conditions: reported by Randle and coworkers (Wannamaker et al. 2007); read-out: Ki versus caspase 9; cited from earlier work
[19] = system: caspases 3, 7, granzyme B, cathepsin B and tyrpsin; conditions: reported by Randle and coworkers; cited from earlier work

| SMILES | aqueous stability in acidic conditions (pH 2) [1] | aqueous stability in neutral conditions (water, pH 7) [1] | aqueous stability in basic conditions (pH 8) [1] | Caco-2 A to B permeability [2] | Caco-2 B to A levels [2] | Pgp efflux substrate [3] | IC50 [5] | IC50 [6] | clearance rates (Clint) ([4]; liver microsomes) | t ½ ([4]; liver microsomes) | IC50 [10] | IC50 [11] | free fraction in protein binding assay [12] | free fraction in protein binding assay [13] | also measured |
| --- | --- | --- | --- | --- | --- | --- | --- | --- | --- | --- | --- | --- | --- | --- | --- |
| CCO[C@@H]1OC(=O)C[C@@H]1NC(=O)[C@@H]1CCCN1C(=O)[C@@H](NC(=O)c1ccc(N)c(Cl)c1)C(C)(C)C [VX-765 (1), reference compound] | amplified | moderate degradation | amplified | moderately better levels | high | substrates for Pgp efflux |  |  |  |  |  |  |  |  | degradation at pH 2 ([1]; pH 2, after 3.5 hours): 40%; compound decomposed in water ([1]; water (pH 7), after 48 hours): over 50%; metabolism by liver microsomes ([4]; liver microsomes): minimal ability to be metabolized; half-life ([4]; liver microsomes, read-out: t ½): > 157 h |
| CCOC(=O)CC(C#N)NC(=O)C1CCCN1C(=O)C(NC(=O)c1ccc(N)c(Cl)c1)C(C)(C)C (stereo not shown) [NCGC00185682 (3)] | exceptionally stable | exceptionally stable |  | moderately better levels | high | substrates for Pgp efflux | 145 nM | 43.4 nM | moderate | moderate |  |  |  |  | degradation in basic conditions ([1]; basic (pH 8), after 22 hours): fully degraded; degradation in liver microsomes without NADPH ([4]; without NADPH as a cofactor): slight degree of degradation |
| CC(C)(C)[C@H](NC(=O)c1ccc(N)c(Cl)c1)C(=O)N1CCC[C@H]1C(=O)N[C@H](C=O)CC(=O)O [VRT-043198 (2b), reference compound] | very stable | very stable | moderate |  |  |  | 11.5 nM | 0.204 nM | moderate | moderate | 5.07 nM | 58.5 nM | significantly higher | significantly higher | IC50 [7]: 14.5 nM; IC50 [8]: 3.3 nM; IC50 [9]: > 10000 nM; Ki [14]: < 1 nM; Ki [15]: < 1 nM; Ki [16]: 100 nM; Ki [17]: 560 nM; Ki [18]: 1030 nM; activity versus the remaining targets [19]: little activity |
| CC(C)(C)C(NC(=O)c1ccc(N)c(Cl)c1)C(=O)N1CCCC1C(=O)NC(C#N)CC(=O)O (stereo not shown) [NCGC00183434 (4)] | moderate to good | moderate to good | exceedingly stable |  |  |  | 0.316 nM | 0.023 nM | moderate | moderate |  | 801 nM | significantly higher | significantly higher | degradation in acidic conditions ([1]; acidic (pH 2), after 72 hours): 50%; degradation in neutral conditions ([1]; neutral (pH 7), after 72 hours): 50%; persistence in aqueous conditions ([1]; suggested from the degradation data): > 24 h |
| CC(C)(C)C(NC(=O)c1ccc(N)c(Cl)c1)C(=O)N1CCCC1C(=O)NC(C#N)Cc1nnn[nH]1 (stereo not shown) [NCGC00183681 (16)] | resistant to degradation | resistant to degradation | resistant to degradation |  |  |  | 20.4 nM | 2.58 nM | moderate | moderate | 91.5 nM |  | significantly higher | significantly higher |  |
